These results are taken from ChEMBL document CHEMBL1145159 (J Med Chem, 2005).

Peptide text beside a SMILES is read from it.

In experiment [1] the target is Neuronal acetylcholine receptor subunit alpha-9 (Homo sapiens, UniProt Q9UGM1). The experiment can be described thus: Inhibitory concentration against Nicotinic acetylcholine receptor alpha9; Range is 100-200 nM.
Experiment [2] concerns the target T1, Neuronal acetylcholine receptor; alpha3/beta4 (Homo sapiens, UniProt P30926+P32297). The experiment can be described thus: Inhibitory concentration against Nicotinic acetylcholine receptor alpha3-beta4; Range is 100-200 nM. The class given is protein-complex assay.
Experiment [3] concerns the target T2, Neuronal acetylcholine receptor subunit alpha-7 (Homo sapiens, UniProt P36544). Description: Inhibitory concentration against Nicotinic acetylcholine receptor alpha7; Range is 100-200 nM.
In experiment [4] the target is T1, Neuronal acetylcholine receptor; alpha3/beta4. The experiment can be described thus: Inhibitory concentration against Nicotinic acetylcholine receptor alpha3-beta4; Range is 0.3-1.5 nM. The class given is protein-complex assay.
In experiment [5] the target is T2, Neuronal acetylcholine receptor subunit alpha-7. Description: Inhibitory concentration against Nicotinic acetylcholine receptor alpha7; Range is 0.3-1.5 nM.
In experiment [6] the target is T3, Neuronal acetylcholine receptor; alpha2/beta2 (Homo sapiens, UniProt P17787+Q15822). Description: Inhibitory concentration against Nicotinic acetylcholine receptor alpha2-beta2; Range is 0.3-1.5 nM. The format is protein-complex assay.
T3 sequence (P17787 whole entry): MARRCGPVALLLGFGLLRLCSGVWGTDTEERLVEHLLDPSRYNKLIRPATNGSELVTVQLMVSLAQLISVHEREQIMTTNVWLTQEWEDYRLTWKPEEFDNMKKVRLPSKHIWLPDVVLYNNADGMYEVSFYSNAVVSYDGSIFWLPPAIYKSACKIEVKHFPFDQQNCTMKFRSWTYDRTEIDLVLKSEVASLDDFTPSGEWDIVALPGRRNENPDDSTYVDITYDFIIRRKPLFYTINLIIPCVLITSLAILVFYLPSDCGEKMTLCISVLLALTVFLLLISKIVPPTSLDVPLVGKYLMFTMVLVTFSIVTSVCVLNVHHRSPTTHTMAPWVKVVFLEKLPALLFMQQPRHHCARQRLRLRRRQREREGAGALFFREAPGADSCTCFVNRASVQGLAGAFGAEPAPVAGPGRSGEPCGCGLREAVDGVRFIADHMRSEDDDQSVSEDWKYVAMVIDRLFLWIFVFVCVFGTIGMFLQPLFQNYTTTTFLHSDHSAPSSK
T3 sequence (Q15822 whole entry): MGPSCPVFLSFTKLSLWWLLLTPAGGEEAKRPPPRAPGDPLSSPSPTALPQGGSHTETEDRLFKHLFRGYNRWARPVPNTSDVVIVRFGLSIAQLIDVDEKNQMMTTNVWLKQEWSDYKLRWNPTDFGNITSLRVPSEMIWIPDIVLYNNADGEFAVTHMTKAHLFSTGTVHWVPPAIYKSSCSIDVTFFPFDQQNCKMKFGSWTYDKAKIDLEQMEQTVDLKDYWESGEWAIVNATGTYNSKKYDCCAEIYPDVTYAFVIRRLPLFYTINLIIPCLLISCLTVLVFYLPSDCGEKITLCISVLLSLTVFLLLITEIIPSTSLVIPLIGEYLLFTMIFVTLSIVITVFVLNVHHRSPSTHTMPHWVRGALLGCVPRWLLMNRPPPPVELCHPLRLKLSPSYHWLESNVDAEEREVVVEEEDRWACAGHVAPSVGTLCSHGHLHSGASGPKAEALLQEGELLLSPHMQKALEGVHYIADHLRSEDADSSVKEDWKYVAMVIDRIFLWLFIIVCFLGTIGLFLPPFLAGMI
Experiment [7] deals with T4, Neuronal acetylcholine receptor; alpha4/beta2 (Homo sapiens, UniProt P17787+P43681). Description: Inhibitory concentration against Nicotinic acetylcholine receptor alpha4-beta2; Range is 0.3-1.5 nM. The class given is protein-complex assay.
T4 sequence (P17787 whole entry): as the sequence (P17787 whole entry) above
T4 sequence (P43681 whole entry): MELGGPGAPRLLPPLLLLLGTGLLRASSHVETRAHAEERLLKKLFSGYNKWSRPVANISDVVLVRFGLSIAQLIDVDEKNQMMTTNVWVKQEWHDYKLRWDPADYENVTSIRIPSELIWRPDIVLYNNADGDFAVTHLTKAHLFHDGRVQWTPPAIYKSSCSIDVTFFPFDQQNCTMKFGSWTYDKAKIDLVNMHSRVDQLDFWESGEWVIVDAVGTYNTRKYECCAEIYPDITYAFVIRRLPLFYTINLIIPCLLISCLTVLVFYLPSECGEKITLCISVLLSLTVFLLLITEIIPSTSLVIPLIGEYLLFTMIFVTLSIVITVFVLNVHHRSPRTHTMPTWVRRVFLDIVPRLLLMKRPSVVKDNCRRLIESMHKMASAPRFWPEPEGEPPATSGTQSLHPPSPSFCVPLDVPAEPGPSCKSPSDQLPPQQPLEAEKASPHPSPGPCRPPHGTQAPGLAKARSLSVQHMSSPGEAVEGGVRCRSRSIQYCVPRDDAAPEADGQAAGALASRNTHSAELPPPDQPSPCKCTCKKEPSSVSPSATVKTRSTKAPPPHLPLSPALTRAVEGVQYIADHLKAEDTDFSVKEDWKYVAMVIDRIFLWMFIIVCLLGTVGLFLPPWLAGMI
Experiment [8] has as its target Neuronal acetylcholine receptor; alpha4/beta4 (Homo sapiens, UniProt P30926+P43681). Description: Inhibitory concentration against Nicotinic acetylcholine receptor alpha4-beta4; Range is 0.3-1.5 nM. The format is protein-complex assay.
The target in experiment [9] is Neuronal acetylcholine receptor; alpha2/beta4 (Homo sapiens, UniProt P30926+Q15822). Description: Inhibitory concentration against Nicotinic acetylcholine receptor alpha2-beta4; Range is 0.3-1.5 nM. The class given is protein-complex assay.
In experiment [10] the target is T5, Neuronal acetylcholine receptor; alpha3/beta2 (Homo sapiens, UniProt P17787+P32297). The experiment can be described thus: Inhibitory concentration against Nicotinic acetylcholine receptor alpha3-beta2; Range is 0.3-1.5 nM. The class given is protein-complex assay.
T5 sequence (P17787 whole entry): as the sequence (P17787 whole entry) above
T5 sequence (P32297 whole entry): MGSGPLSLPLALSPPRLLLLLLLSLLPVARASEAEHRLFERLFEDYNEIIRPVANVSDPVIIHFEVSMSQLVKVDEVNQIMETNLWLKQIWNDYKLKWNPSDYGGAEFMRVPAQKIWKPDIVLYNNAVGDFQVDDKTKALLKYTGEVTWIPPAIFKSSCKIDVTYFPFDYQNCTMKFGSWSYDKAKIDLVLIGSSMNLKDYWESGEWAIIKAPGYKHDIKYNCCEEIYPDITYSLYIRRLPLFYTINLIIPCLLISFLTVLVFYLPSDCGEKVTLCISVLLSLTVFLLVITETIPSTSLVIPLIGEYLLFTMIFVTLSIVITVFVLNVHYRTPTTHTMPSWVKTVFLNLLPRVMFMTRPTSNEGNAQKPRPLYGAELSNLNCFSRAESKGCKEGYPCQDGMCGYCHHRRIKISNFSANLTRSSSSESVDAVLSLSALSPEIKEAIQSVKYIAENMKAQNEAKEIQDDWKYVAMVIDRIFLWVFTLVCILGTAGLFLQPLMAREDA
Experiment [11] in a line: Inhibitory concentration against Nicotinic acetylcholine receptor alpha 6/alpha-3-beta-4; Range is 0.3-1.5 nM. More on the design: species or system Homo sapiens.
A short description of experiment [12]: Inhibitory concentration against Nicotinic acetylcholine receptor alpha-6-alpha-3-beta-2; Range is 0.3-1.5 nM. Also noted: species or system Homo sapiens.
In experiment [13] the target is Neuronal acetylcholine receptor; alpha3/alpha6/beta2/beta3 (Homo sapiens, UniProt P17787+P32297+Q05901+Q15825). Description: Inhibitory concentration against Nicotinic acetylcholine receptor alpha-6-alpha-3-beta-2-beta-3; Range is 0.7-1 nM. The format is protein-complex assay.
Experiment [14] deals with T1, Neuronal acetylcholine receptor; alpha3/beta4. Description: Inhibitory concentration against Nicotinic acetylcholine receptor alpha3-beta4; Range is 0.7-1 nM. The class given is protein-complex assay.
Experiment [15] concerns the target T2, Neuronal acetylcholine receptor subunit alpha-7. Description: Inhibitory concentration against Nicotinic acetylcholine receptor alpha 7.
Experiment [16] concerns the target T3, Neuronal acetylcholine receptor; alpha2/beta2. Description: Inhibitory concentration against Nicotinic acetylcholine receptor alpha2-beta2. The class given is protein-complex assay.
Experiment [17] concerns the target T4, Neuronal acetylcholine receptor; alpha4/beta2. Description: Inhibitory concentration against Nicotinic acetylcholine receptor alpha4-beta2. The class given is protein-complex assay.
In experiment [18] the target is T5, Neuronal acetylcholine receptor; alpha3/beta2. Description: Inhibitory concentration against Nicotinic acetylcholine receptor alpha3-beta2. The class given is protein-complex assay.

T1 sequence (P30926 whole entry): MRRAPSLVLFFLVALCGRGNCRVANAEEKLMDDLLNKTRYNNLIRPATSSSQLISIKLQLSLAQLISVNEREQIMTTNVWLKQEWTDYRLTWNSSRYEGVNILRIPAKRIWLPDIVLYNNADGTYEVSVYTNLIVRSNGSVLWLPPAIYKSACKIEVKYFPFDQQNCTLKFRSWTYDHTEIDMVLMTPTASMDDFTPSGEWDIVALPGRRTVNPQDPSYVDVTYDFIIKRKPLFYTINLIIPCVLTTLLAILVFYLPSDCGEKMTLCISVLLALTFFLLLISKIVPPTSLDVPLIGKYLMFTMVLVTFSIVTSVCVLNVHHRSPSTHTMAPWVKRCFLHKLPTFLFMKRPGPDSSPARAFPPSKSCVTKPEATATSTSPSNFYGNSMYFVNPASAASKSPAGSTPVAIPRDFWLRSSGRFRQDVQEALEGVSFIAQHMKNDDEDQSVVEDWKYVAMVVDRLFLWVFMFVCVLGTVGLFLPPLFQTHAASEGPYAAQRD
T1 sequence (P32297 whole entry): as the sequence (P32297 whole entry) above
T2 sequence (P36544 whole entry): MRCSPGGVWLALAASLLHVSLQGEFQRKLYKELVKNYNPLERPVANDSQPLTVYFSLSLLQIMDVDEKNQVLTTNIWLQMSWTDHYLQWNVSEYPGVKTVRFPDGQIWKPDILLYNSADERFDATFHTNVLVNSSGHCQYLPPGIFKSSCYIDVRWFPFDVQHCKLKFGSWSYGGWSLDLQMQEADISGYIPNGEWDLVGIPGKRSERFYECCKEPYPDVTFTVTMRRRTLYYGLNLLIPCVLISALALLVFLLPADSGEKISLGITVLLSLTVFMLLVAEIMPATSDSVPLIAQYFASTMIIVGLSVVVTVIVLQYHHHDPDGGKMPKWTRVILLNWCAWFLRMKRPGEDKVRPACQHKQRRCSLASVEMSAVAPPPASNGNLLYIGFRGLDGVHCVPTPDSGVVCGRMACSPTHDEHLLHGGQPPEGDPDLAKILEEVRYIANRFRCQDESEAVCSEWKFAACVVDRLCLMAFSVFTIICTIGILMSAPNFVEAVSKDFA

By IC50 is commonly meant the concentration at which inhibition is half-maximal. Read a high IC50 as weaker potency in that assay. As for `C[C@H](NC(=O)[C@H](CS)NC(=O)[C@H](CCCN=C(N)N)NC(=O)[C@@H]1CCCN1C(=O)[C@H](CC(=O)O)NC(=O)[C@H](CO)NC(=O)[C@H](CS)NC(=O)[C@H](CS)NC(=O)CN)C(=O)N[C@@H](Cc1c[nH]c2ccccc12)C(=O)N[C@@H](CCCN=C(N)N)C(N)=O` (H-GCCSDPRCAWR-NH2), the IC50 in experiment [1], in experiment [2] and in [3] was 200 nM in each case.

`CC(C)C[C@H](NC(=O)[C@@H](NC(=O)[C@H](C)NC(=O)[C@H](CS)NC(=O)[C@@H]1CCCN1C(=O)[C@@H]1CCCN1C(=O)[C@@H](NC(=O)[C@H](CO)NC(=O)[C@H](CS)NC(=O)[C@H](CS)NC(=O)CN)[C@@H](C)O)C(C)C)C(=O)N[C@@H](Cc1ccc(O)cc1)C(=O)N[C@@H](CS)C(=O)NCC(=O)N[C@@H](CCCNC(=N)N)C(=O)N[C@@H](CCCNC(=N)N)C(=O)N[C@H](C=O)CCCNC(=N)N` (H-GCCSTPPCAVLYCGRRR-aldehyde): the IC50 in experiment [4], in [5], in experiment [6], in experiment [7], in experiment [8] and in experiment [9] was 1.5 nM in each case. The same compound came in with an IC50 in experiment [10] of 1.5 nM.

For `CC(C)C[C@H](NC(=O)[C@@H](NC(=O)[C@H](C)NC(=O)[C@H](CS)NC(=O)[C@@H]1CCCN1C(=O)[C@@H]1CCCN1C(=O)[C@@H](NC(=O)[C@H](CO)NC(=O)[C@H](CS)NC(=O)[C@H](CS)NC(=O)CN)[C@@H](C)O)C(C)C)C(=O)N[C@@H](Cc1ccc(O)cc1)C(=O)N[C@@H](CS)C(=O)NCC(=O)N[C@@H](CCCN=C(N)N)C(=O)N[C@@H](CCCN=C(N)N)C(=O)N[C@H](C=O)CCCN=C(N)N` (H-GCCSTPPCAVLYCGRRR-aldehyde), the IC50 in experiment [11] and in experiment [12] was 1.5 nM each time.

With `CC[C@H](C)[C@H](NC(=O)[C@H](CCC(N)=O)NC(=O)[C@@H]1CCCN1C(=O)[C@H](CC(N)=O)NC(=O)[C@H](Cc1cnc[nH]1)NC(=O)[C@@H](NC(=O)[C@@H](NC(=O)[C@H](CS)NC(=O)[C@@H](NC(=O)[C@@H]1CCCN1C(=O)[C@H](CC(N)=O)NC(=O)[C@H](CO)NC(=O)[C@H](CS)NC(=O)[C@H](CS)NC(=O)[C@@H]1CCCN1C(=O)[C@@H](N)CC(=O)O)C(C)C)[C@@H](C)O)C(C)C)C(=O)N[C@@H](CS)C(N)=O` (H-DPCCSNPVCTVHNPQIC-NH2), the IC50 in experiment [13] and in experiment [14] was 1 nM each time.

In the case of `CC(C)C[C@H](NC(=O)[C@H](CO)NC(=O)[C@H](CS)NC(=O)[C@H](CS)NC(=O)CN)C(=O)N1CCC[C@H]1C(=O)N1CCC[C@H]1C(=O)N[C@@H](CS)C(=O)N[C@@H](C)C(=O)N[C@@H](C)C(=O)N[C@@H](CC(N)=O)C(=O)N[C@@H](CC(N)=O)C(=O)N1CCC[C@H]1C(=O)N[C@@H](CC(=O)O)C(=O)N[C@@H](Cc1ccc(O)cc1)C(=O)N[C@@H](CS)C(N)=O` (H-GCCSLPPCAANNPDYC-NH2), the IC50 in experiment [15], in [16], in experiment [17] and in [18] was 9.6 nM each time.
